According to PMC11005823 (Frontiers in Microbiology, 2024):
Numbering of substitutions follows the chain as printed. Values joined by “and” are separate entries in the source; they are usually repeats but may differ in a detail not shown here. Identical values can stand only once. Like-named read-outs stand apart in the source and are kept apart here.

Key:
AbaPirA = molecular target: T1, AbaPirA (Acinetobacter baumannii, UniProt D0C8V9); conditions: read-out: apparent KD; AbaPirA sensor; NB = no binding
T1 sequence (D0C8V9 25-754): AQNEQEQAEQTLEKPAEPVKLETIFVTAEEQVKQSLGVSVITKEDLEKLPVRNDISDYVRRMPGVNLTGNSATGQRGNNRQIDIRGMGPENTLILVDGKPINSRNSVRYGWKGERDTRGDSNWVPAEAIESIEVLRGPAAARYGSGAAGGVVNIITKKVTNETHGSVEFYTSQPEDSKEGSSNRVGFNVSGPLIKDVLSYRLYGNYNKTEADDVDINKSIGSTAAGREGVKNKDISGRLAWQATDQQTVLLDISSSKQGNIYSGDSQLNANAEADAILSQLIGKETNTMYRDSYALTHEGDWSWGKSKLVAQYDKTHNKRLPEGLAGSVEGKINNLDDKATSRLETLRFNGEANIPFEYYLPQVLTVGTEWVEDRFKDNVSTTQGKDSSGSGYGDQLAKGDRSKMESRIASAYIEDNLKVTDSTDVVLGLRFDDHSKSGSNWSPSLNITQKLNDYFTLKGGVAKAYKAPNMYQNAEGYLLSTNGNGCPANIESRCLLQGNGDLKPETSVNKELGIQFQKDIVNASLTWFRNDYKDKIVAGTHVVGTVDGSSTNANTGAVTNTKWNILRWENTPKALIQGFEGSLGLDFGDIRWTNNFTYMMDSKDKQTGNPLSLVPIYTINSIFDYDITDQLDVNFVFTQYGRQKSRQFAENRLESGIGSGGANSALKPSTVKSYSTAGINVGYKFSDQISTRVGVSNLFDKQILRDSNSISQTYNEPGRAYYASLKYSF

EcoCir = EcoCir (Escherichia coli, UniProt P17315); assay type: binding
EcoFiu (Fiu_A694C-FM) = molecular target: T2, EcoFiu (Fiu_A694C-FM) (Escherichia coli, UniProt P75780, A694C); experiment: biochemical; assay type: binding
T2 sequence (P75780 32-760 A694C): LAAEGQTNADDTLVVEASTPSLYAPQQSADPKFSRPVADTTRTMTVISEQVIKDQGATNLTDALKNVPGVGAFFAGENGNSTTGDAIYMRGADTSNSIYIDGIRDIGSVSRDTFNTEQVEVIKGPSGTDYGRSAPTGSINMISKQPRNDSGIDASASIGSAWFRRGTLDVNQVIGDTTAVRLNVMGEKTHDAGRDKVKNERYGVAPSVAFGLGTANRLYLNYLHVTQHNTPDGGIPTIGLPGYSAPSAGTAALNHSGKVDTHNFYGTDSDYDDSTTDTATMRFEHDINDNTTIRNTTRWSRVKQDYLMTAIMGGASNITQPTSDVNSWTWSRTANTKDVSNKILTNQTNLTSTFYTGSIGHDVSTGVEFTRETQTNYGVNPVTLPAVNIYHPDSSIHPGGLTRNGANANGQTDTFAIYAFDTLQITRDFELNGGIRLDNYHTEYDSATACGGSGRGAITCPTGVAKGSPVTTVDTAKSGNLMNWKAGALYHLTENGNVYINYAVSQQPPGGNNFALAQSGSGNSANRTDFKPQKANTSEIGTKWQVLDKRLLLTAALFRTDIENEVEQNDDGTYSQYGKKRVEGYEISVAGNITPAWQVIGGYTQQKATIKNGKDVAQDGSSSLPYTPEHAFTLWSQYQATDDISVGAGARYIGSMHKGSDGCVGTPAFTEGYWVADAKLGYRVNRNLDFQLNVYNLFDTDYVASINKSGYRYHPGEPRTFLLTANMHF

[1] = tested on: OKN359/pFiu Fiu^+, FepA^−, Cir-; conditions: summary in words; strains exclusively expressing Fiu
EcoFepA = assay type: binding, Escherichia coli; conditions: read-out: apparent KD
[2] = tested on: OKN359/pCir Fiu^−, FepA^−, Cir^+; conditions: summary in words
[3] = tested on: OKN359/pFepA Fiu^−, FepA^+, Cir-; conditions: summary in words
AbaPiuA = molecular target: T3, AbaPiuA (Acinetobacter baumannii, UniProt D0CAH3); conditions: read-out: apparent KD; AbaPiuA sensor; NB = no binding
T3 sequence (D0CAH3 29-743): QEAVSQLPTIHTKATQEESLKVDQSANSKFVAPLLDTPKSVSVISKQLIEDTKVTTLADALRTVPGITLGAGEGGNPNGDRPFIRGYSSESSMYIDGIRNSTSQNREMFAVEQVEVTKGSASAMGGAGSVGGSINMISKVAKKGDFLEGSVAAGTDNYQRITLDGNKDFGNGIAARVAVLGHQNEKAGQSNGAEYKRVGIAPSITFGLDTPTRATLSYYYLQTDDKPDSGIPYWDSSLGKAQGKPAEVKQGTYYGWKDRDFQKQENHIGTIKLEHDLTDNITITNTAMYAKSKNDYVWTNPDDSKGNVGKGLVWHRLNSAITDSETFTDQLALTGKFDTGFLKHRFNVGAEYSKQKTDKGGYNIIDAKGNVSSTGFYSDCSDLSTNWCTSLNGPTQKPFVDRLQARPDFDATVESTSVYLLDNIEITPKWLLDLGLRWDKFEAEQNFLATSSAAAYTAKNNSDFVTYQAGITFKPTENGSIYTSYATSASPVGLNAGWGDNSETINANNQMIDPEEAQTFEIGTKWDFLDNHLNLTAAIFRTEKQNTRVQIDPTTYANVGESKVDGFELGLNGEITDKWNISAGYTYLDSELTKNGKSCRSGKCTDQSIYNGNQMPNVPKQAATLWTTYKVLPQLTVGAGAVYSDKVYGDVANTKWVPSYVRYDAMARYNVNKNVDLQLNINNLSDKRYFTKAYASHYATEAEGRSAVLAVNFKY

Fiu N554C-FM = molecular target: T4, Fiu N554C-FM (Escherichia coli, UniProt P75780, N554C); assay type: binding; conditions: Fiu Cys mutant N554C-FM (positive control); read-out: Affinity: apparent KD
T4 sequence (P75780 32-760 N554C): T2 sequence (P75780 32-760 A694C) with N523C, C663A

AbaBauA = molecular target: T5, AbaBauA (Acinetobacter baumannii, UniProt Q76HJ9); conditions: AbaBauA sensor; NB = no binding; read-out: apparent KD
T5 sequence (Q76HJ9 23-725): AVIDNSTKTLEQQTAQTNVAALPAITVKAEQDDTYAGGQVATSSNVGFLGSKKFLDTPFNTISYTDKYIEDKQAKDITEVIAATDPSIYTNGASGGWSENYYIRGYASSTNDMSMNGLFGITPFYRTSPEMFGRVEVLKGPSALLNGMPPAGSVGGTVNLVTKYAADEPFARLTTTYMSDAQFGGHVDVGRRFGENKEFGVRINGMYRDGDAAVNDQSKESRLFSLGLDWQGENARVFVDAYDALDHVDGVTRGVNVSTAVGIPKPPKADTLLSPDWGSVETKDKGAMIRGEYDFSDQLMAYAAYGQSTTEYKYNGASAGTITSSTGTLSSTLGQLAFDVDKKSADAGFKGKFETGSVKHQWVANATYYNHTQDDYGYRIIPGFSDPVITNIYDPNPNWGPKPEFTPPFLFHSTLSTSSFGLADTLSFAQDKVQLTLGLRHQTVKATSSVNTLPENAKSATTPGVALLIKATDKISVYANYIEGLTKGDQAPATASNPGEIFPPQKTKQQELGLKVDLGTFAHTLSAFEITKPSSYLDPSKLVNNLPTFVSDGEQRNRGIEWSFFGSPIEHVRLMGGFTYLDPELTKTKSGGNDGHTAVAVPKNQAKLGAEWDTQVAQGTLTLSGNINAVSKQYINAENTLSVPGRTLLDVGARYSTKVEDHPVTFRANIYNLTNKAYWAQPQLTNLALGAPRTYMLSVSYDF

[4] = apparent KD, EcoFiu sensor (Fiu_A694C-FM; FeDHBA with Fiu_N554C-FM), NB = no binding

Sequence of EcoCir (P17315 26-663): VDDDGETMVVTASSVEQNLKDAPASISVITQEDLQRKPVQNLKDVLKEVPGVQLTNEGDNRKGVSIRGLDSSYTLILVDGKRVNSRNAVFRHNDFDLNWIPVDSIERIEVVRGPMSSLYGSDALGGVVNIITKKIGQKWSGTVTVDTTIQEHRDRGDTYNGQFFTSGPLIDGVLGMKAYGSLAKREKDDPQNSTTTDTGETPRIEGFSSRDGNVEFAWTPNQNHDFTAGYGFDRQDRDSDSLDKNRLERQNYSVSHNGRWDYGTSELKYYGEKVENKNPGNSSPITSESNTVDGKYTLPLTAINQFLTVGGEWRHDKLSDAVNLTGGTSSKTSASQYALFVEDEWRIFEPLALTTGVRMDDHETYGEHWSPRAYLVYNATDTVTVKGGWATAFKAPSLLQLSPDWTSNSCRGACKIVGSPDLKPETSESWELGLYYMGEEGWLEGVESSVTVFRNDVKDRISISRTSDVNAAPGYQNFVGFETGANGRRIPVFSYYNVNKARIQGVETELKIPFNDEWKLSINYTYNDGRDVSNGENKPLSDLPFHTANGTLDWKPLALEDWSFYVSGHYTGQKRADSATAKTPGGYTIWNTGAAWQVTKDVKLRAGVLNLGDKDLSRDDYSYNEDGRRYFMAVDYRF

CC(C)(O/N=C(\C(=O)N[C@@H]1C(=O)N2C(C(=O)O)=C(C[N+]3(CCNC(=O)c4ccc(O)c(O)c4Cl)CCCC3)CS[C@H]12)c1csc(N)n1)C(=O)O.[Fe+3] [FeFDC]
Kd (AbaPirA): 6.2 ± 2.3 µM | Kd (EcoCir; Cir): 60 nM | Kd (EcoCir; read-out: apparent KD, EcoCir sensor, value marked ^1): 63 ± 6 nM | Kd (EcoFiu (Fiu_A694C-FM); [4]): 500 nM | Kd (EcoFiu (Fiu_A694C-FM); read-out: apparent KD, EcoFiu sensor (Fiu_A694C-FM; FeDHBA with Fiu_N554C-FM), NB = no binding): 400 ± 500 nM

O=C(N[C@@H](CO)C(=O)O)c1cccc(O)c1O.O=C(N[C@@H](CO)C(=O)O)c1cccc(O)c1O.O=C(N[C@@H](CO)C(=O)O)c1cccc(O)c1O.[Fe+3] [FeDHBS]
Kd (AbaPirA): 161 ± 40 µM | transport by Fiu [1]: did not utilize | Kd (EcoFepA): 1600 ± 300 nM | Kd (EcoCir; read-out: apparent KD, EcoCir sensor, NB = no binding): 7200 ± 900 nM | transport by Cir [2]: weakly | Kd (EcoFiu (Fiu_A694C-FM); [4]): 100 nM and ~100 nM | Kd (EcoFiu (Fiu_A694C-FM); apparent KD, EcoFiu sensor, value marked ^1): 90 ± 0.2 nM

CC(C)(O/N=C(\C(=O)N[C@@H]1C(=O)N2C(C(=O)[O-])=C(C[N+]3(CCNC(=O)c4ccc([O-])c([O-])c4Cl)CCCC3)CS[C@H]12)c1csc(N)n1)C(=O)O.[Fe+3] [FeFDC]
susceptibility of cells expressing only FepA [3]: not susceptible

O=C(O)c1cccc(O)c1O.O=C(O)c1cccc(O)c1O.O=C(O)c1cccc(O)c1O.[Fe+3] [FeDHBA]
Kd (AbaPirA): 9.4 ± 0.9 µM | Kd (AbaPiuA): 15 ± 3 µM | transport by FepA [3]: transported | transport by Fiu [1]: did not utilize | Kd (Fiu N554C-FM): 700 nM | fluorescence quenching at site A694C-FM (EcoFiu (Fiu_A694C-FM); Fiu_A694C-FM): did not observe significant quenching | Kd (EcoFiu (Fiu_A694C-FM); [4]): 700 ± 100 nM

O=C(N[C@@H](CO)C(=O)OC[C@H](NC(=O)c1cccc(O)c1[O-])C(=O)O)c1cccc([O-])c1[O-].[Fe+3] [FeEnt*, Fe(DHBS)2]
Kd (EcoFiu (Fiu_A694C-FM); [4]): 740 nM

ferric acinetobactin [FeAgn]
Kd (AbaBauA): 2100 ± 400 nM
